Among the data in patent US8536202B2, “Triazole-substituted anthranilamides as pesticides” (Bayer Cropscience AG, priority 2010, dated 2013) are pest or weed control and chromatographic logP values, retold here.

Where two headings read alike, the source gives them in different places.

For data set [1], the system named is larvae of the mustard beetle (Phaedon cochleariae). In words: Phaedon test (PHAECO spray treatment). Format: in vivo. As to conditions: 168 h, read-out: activity in %. How it is done:
(§1) Solvents: 78.0 parts by weight of acetone • • 1.5 parts by weight of dimethylformamide
(§2) Emulsifier: 0.5 part by weight of alkylaryl polyglycol ether
(§3) An appropriate preparation of active compound is prepared by mixing 1 part by weight of active compound with the stated amounts of solvent and emulsifier and diluting the concentrate with emulsifier-containing water to the desired concentration.
After 7 days, the activity in % is ascertained. Here, 100% means that all of the beetle larvae have been killed; 0% means that no beetle larvae have been killed.

Data set [2] concerns caterpillars of the armyworm (Spodoptera frugiperda). In words: Spodoptera frugiperda test (SPODFR spray treatment). As to conditions: 168 h, read-out: activity in %. Type of data set: in vivo. How it is done:
as §1, §2, §3
Leaf discs of maize (Zea mays) are sprayed with a preparation of active compound at the desired concentration and, after drying, are populated with caterpillars of the armyworm (Spodoptera frugiperda).
After 7 days, the activity in % is ascertained. Here, 100% means that all of the caterpillars have been killed; 0% means that no caterpillar has been killed.

Data set [3] can be described thus: log P determination by HPLC on reversed-phase columns (EEC Directive 79/831 Annex V.A8). Type of data set: physicochemical. The settings on record: pH 2.7. How it is done:
Determination by LC-MS in the acidic range takes place at a pH of 2.7 using 0.1% aqueous formic acid and acetonitrile (containing 0.1% formic acid) as eluents, with a linear gradient from 10% acetonitrile to 95% acetonitrile.
Calibration was carried out using unbranched alkan-2-ones (having 3 to 16 carbon atoms) with known log P values (the log P values are determined from the retention times by linear interpolation between two successive alkanones).

Setting [4] is: HPLC on reversed-phase columns (C 18), EEC Directive 79/831 Annex V.A8, read-out: logP.
Setting [5] is: reversed-phase C18 HPLC column, HPLC on reversed-phase columns (C 18), EEC Directive 79/831 Annex V.A8, read-out: logP.

In the case of `CNC(=O)c1cc(Cl)cc(C)c1NC(=O)c1cc(Cn2cc(-c3cccc(Cl)c3)nn2)nn1-c1ncccc1Cl` [Example 20], the pest or weed control at 100 g/ha in data set [1] (100 g/ha, after 7 days) was determined as 100%; in data set [2] (100 g/ha, after 7 days), 100%. The molecule also came in with a chromatographic logP in data set [3] of 3.11.

Take `Cc1cc(I)cc(C(=O)NC(C)C)c1NC(=O)c1cc(Cn2ncc(C(F)(F)F)n2)nn1-c1ncccc1Cl` [Example 161]: the pest or weed control at 100 g/ha in data set [1] (100 g/ha, after 7 days) is 100%; in data set [2] (100 g/ha, after 7 days), 100%. Further, the chromatographic logP in data set [3] stood at 3.73.

Turning to `CC(C)NC(=O)c1cc(Cl)cc(Cl)c1NC(=O)c1cc(Cn2cc(C(F)(C(F)(F)F)C(F)(F)F)nn2)nn1-c1ncccc1Cl` [Example 243], the pest or weed control at 100 g/ha in data set [1] (100 g/ha, after 7 days) came out at 100%; in data set [2] (100 g/ha, after 7 days), 100%. The same molecule returned a chromatographic logP in data set [3] of 3.79.

Consider `Cc1cc(Cl)cc(C(=O)NC(C)C)c1NC(=O)c1cc(Cn2ncc(C(F)(F)C(F)(F)C(F)(F)F)n2)nn1-c1ncccc1Cl` [Example 378], for which the pest or weed control at 100 g/ha in data set [1] and in data set [2] was 100% in each case. In addition, in data set [3] (setting [4]), the chromatographic logP worked out at 4.27.

On to `Cc1cc(I)cc(C(=O)NC(C)(C)C)c1NC(=O)c1cc(Cn2cc(C(F)(F)C(F)(F)C(F)(F)F)nn2)nn1-c1ncccc1Cl` [Example 334], for which the pest or weed control at 100 g/ha in data set [1] and in data set [2] was 100% throughout. Further, the chromatographic logP in data set [3] (setting [4]) worked out at 4.42.

Consider `CNC(=O)c1cc(C#N)cc(C)c1NC(=O)c1cc(Cn2nnc3c(Cl)c(Cl)c(Cl)c(Cl)c32)nn1-c1ncccc1Cl` [Example 92], for which the pest or weed control at 100 g/ha in data set [1] (100 g/ha, after 7 days) is 100%; in data set [2] (100 g/ha, after 7 days) it was 100%. The molecule further had a chromatographic logP in data set [3] of 3.79.

Regarding `Cc1cc(I)cc(C(=O)NCC2CC2)c1NC(=O)c1cc(Cn2cc(C(F)(C(F)(F)F)C(F)(F)F)nn2)nn1-c1ncccc1Cl` [Example 237], the pest or weed control at 100 g/ha came to 100% in data set [1] (100 g/ha, after 7 days) and 100% in data set [2] (100 g/ha, after 7 days). Also, the chromatographic logP in data set [3] (setting [5]) came out at 4.14.

`CC(C)NC(=O)c1cc(Cl)cc(Cl)c1NC(=O)c1cc(Cn2ncc(C(F)(C(F)(F)F)C(F)(F)F)n2)nn1-c1ncccc1Cl` [Example 275]: the pest or weed control at 100 g/ha in data set [1] (100 g/ha, after 7 days) is 100%; in data set [2] (100 g/ha, after 7 days), 100%. In data set [3], this molecule yielded a chromatographic logP of 4.17.

`Cc1cc(I)cc(C(N)=O)c1NC(=O)c1cc(Cn2ncc(C(F)(F)C(F)(F)F)n2)nn1-c1ncccc1Cl` [Example 354]: the pest or weed control at 100 g/ha was 100% in data set [1] (100 g/ha, after 7 days) and 100% in data set [2] (100 g/ha, after 7 days). Moreover, the chromatographic logP in data set [3] was determined as 3.33.

As to `Cc1cc(I)cc(C(=O)NC(C)(C)C)c1NC(=O)c1cc(Cn2ncc(C(F)(F)C(F)(F)C(F)(F)F)n2)nn1-c1ncccc1Cl` [Example 385], the pest or weed control at 100 g/ha in data set [1] and in data set [2] was 100% each time. Besides, the chromatographic logP in data set [3] (setting [4]) stood at 4.89.

With `Cc1cc(I)cc(C(=O)NC(C)C)c1NC(=O)c1cc(Cn2ncc(C(F)(F)C(F)(F)F)n2)nn1-c1ncccc1Cl` [Example 346], the pest or weed control at 100 g/ha worked out at 100% in data set [1] (100 g/ha, after 7 days) and 100% in data set [2] (100 g/ha, after 7 days). The molecule further returned a chromatographic logP in data set [3] of 4.15.

As for `CSC[C@H](C)NC(=O)c1cc(C#N)cc(C)c1NC(=O)c1cc(Cn2cc(C(F)(F)F)nn2)nn1-c1ncccc1Cl` [Example 183], the pest or weed control at 100 g/ha in data set [1] (100 g/ha, after 7 days) is 100%; in data set [2] (100 g/ha, after 7 days), 100%. The chromatographic logP in data set [3] was 2.95.

`Cc1cc(C#N)cc(C(=O)NC(C)(C)C)c1NC(=O)c1cc(Cn2cc(-c3cccc(Cl)c3)nn2)nn1-c1ncccc1Cl` [Example 57]: the pest or weed control at 100 g/ha in data set [1] (100 g/ha, after 7 days) was determined as 100%; in data set [2] (100 g/ha, after 7 days), 83%. The same molecule had a chromatographic logP in data set [3] of 3.55.

Regarding `CNC(=O)c1cc(Cl)cc(C)c1NC(=O)c1cc(Cn2ncc(-c3cccc(Cl)c3)n2)nn1-c1ncccc1Cl` [Example 28], the pest or weed control at 100 g/ha in data set [1] (100 g/ha, after 7 days) turned out to be 100%; in data set [2] (100 g/ha, after 7 days), 100%. This molecule also displayed a chromatographic logP in data set [3] of 3.63.

Take `Cc1cc(C#N)cc(C(=O)NC(C)(C)C)c1NC(=O)c1cc(Cn2nnc3c(Br)cc(OC(F)(F)F)cc32)nn1-c1ncccc1Cl` [Example 111]: the pest or weed control at 100 g/ha in data set [1] (100 g/ha, after 7 days) is 100%; in data set [2] (100 g/ha, after 7 days) it was 100%. In addition, the chromatographic logP in data set [3] (setting [5]) worked out at 4.09.

Take `Cc1cc(I)cc(C(=O)NC2CC2)c1NC(=O)c1cc(Cn2cc(C(F)(F)F)nn2)nn1-c1ncccc1Cl` [Example 208]: the pest or weed control at 100 g/ha is 100% in data set [1] (100 g/ha, after 7 days) and 100% in data set [2] (100 g/ha, after 7 days). The chromatographic logP in data set [3] is 3.15.

On to `Cc1cc(I)cc(C(=O)NC(C)C)c1NC(=O)c1cc(Cn2nc(C(F)(F)F)c(C(F)(F)F)n2)nn1-c1ncccc1Cl` [Example 403], for which the pest or weed control at 100 g/ha in data set [1] (100 g/ha, after 7 days) is 100%; in data set [2] (100 g/ha, after 7 days), 100%. The chromatographic logP in data set [3] was determined as 4.47.

Take `Cc1cc(C#N)cc(C(=O)NC(C)C)c1NC(=O)c1cc(Cn2nc(C(F)(F)F)c(C(F)(F)F)n2)nn1-c1ncccc1Cl` [Example 398]: the pest or weed control at 100 g/ha in data set [1] (100 g/ha, after 7 days) was 100%; in data set [2] (100 g/ha, after 7 days), 100%. In data set [3], this molecule registered a chromatographic logP of 3.84.

Turning to `CNC(=O)c1cc(C#N)cc(C)c1NC(=O)c1cc(Cn2nnc3c(Cl)c(Cl)c(Cl)cc32)nn1-c1ncccc1Cl` [Example 96], the pest or weed control at 100 g/ha in data set [1] (100 g/ha, after 7 days) is 100%; in data set [2] (100 g/ha, after 7 days) it was 100%. In data set [3], this molecule came in with a chromatographic logP of 3.42.

With `Cc1cc(I)cc(C(=O)NC(C)C)c1NC(=O)c1cc(Cn2cc(C(F)(F)C(F)(F)C(F)(F)F)nn2)nn1-c1ncccc1Cl` [Example 322], the pest or weed control at 100 g/ha in data set [1] and in data set [2] was 100% each time. Moreover, the chromatographic logP in data set [3] (setting [4]) came to 4.07.

With `Cc1cc(F)cc(C(=O)NC(C)C2CC2)c1NC(=O)c1cc(Cn2ncc(C(F)(F)F)n2)nn1-c1ncccc1Cl` (stereo not drawn) [Example 168], the pest or weed control at 100 g/ha in data set [1] (100 g/ha, after 7 days) is 100%; in data set [2] (100 g/ha, after 7 days), 100%. In data set [3], this molecule had a chromatographic logP of 3.36.

Regarding `Cc1cc(C#N)cc(C(=O)NCC2CC2)c1NC(=O)c1cc(Cn2ncc(C(F)(C(F)(F)F)C(F)(F)F)n2)nn1-c1ncccc1Cl` [Example 253], the pest or weed control at 100 g/ha is 100% in data set [1] (100 g/ha, after 7 days) and 100% in data set [2] (100 g/ha, after 7 days). The chromatographic logP in data set [3] (setting [5]) came to 3.95.

As to `CCNC(=O)c1cc(Cl)cc(C)c1NC(=O)c1cc(Cn2nc(C(F)(F)F)c(C(F)(F)F)n2)nn1-c1ncccc1Cl` [Example 392], the pest or weed control at 100 g/ha in data set [1] (100 g/ha, after 7 days) was 100%; in data set [2] (100 g/ha, after 7 days), 100%. For the same molecule, the chromatographic logP in data set [3] came out at 3.98.

As for `Cc1cc(F)cc(C(=O)NC2CC2)c1NC(=O)c1cc(Cn2ncc(C(F)(F)F)n2)nn1-c1ncccc1Cl` [Example 169], the pest or weed control at 100 g/ha in data set [1] (100 g/ha, after 7 days) was 100%; in data set [2] (100 g/ha, after 7 days), 100%. The molecule also yielded a chromatographic logP in data set [3] of 2.86.

With `Cc1cc(I)cc(C(=O)NC(C)C2CC2)c1NC(=O)c1cc(Cn2cc(C(F)(C(F)(F)F)C(F)(F)F)nn2)nn1-c1ncccc1Cl` (stereo not drawn) [Example 234], the pest or weed control at 100 g/ha in data set [1] (100 g/ha, after 7 days) was determined as 100%; in data set [2] (100 g/ha, after 7 days) it was 100%. For the same molecule, in data set [3] (setting [5]), the chromatographic logP turned out to be 4.38.

For the molecule `Cc1cc(C#N)cc(C(=O)NC2CC2)c1NC(=O)c1cc(Cn2nc(C(F)(F)F)c(C(F)(F)F)n2)nn1-c1ncccc1Cl` [Example 399], the pest or weed control at 100 g/ha in data set [1] (100 g/ha, after 7 days) is 100%; in data set [2] (100 g/ha, after 7 days), 100%. The same molecule displayed a chromatographic logP in data set [3] of 3.59.
